Data reported in ChEMBL document CHEMBL6153040, “Discovery of the salicylaldehyde-based compound DDO-02267 as a lysine-targeting covalent inhibitor of ALKBH5” (Eur J Med Chem, 2025).
The source made the active and inactive calls. The calls are words filed in the database; no cut-off is given here.

Assays:
[1] = biological target: T1, RNA demethylase ALKBH5 (Homo sapiens, UniProt Q6P6C2); assay: Binding affinity to ALKBH5 (66 to 292 residues) (unknown origin) extracted from Escherichia coli BL21 (DE3) cells assessed as dissociation constant by ITC analysis
Target sequence in this assay (Q6P6C2 whole entry, the tested form may be a part): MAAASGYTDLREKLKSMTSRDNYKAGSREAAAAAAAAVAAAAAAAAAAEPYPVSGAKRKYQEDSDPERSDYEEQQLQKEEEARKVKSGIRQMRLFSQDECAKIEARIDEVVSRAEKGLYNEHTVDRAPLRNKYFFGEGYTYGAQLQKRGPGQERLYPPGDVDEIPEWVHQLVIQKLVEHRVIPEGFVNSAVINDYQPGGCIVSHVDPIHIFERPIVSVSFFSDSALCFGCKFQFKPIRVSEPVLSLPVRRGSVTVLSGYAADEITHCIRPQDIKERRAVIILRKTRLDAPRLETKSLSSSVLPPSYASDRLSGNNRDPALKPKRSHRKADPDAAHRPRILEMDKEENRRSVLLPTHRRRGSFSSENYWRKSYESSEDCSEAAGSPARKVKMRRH

[2] = biological target: T1, RNA demethylase ALKBH5; assay: Binding affinity to ALKBH5 in human MOLM-13 cells assessed as protection of pronase-mediated protein degradation at 12.5 to 50 uM preincubated for 30 mins followed by protease addition and measured after 10 mins by DARTS method; type: cell-based; details: dose 12.5-50 µM, time 40.0 min
Target sequence in this assay (Q6P6C2 2-394 limits assumed): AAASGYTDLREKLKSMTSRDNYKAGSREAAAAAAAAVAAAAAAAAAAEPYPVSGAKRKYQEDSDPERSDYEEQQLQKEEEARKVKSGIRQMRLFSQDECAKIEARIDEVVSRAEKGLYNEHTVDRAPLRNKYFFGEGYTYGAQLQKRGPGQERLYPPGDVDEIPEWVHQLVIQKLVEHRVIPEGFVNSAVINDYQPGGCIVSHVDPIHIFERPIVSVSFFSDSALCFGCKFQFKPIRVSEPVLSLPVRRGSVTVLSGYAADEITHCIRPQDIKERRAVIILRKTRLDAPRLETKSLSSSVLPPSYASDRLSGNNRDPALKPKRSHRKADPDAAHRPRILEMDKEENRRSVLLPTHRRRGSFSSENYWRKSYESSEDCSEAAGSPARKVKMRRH

[3] = biological target: T1, RNA demethylase ALKBH5; assay: Induction of thermal stabilization of ALKBH5 in human MOLM-13 cells at 20 uM incubated for 30 min and measured after 3 mins incubation under 45 to 65 degreeC by […] assay; type: cell-based; details: time 33.0 min
Target sequence in this assay (Q6P6C2 2-394 limits assumed): as above

[4] = tested on: RNA demethylase ALKBH5 (Homo sapiens), Q6P6C2 [K132E]; assay: Inhibition of ALKBH5 K132E mutant (66 to 292 residues) (unknown origin) extracted from Escherichia coli BL21 (DE3) cells using m6A ssDNA as substrate at 0.5 to 100 uM incubated for 2 hrs by restriction enzyme digestion assay; details: dose 0.5-100 µM
[5] = biological target: T1, RNA demethylase ALKBH5; assay: Inhibition of ALKBH5 (66 to 292 residues) (unknown origin) extracted from Escherichia coli BL21 (DE3) cells using m6A ssDNA as substrate measured after 20 mins by fluorescence polarization assay
Target sequence in this assay (Q6P6C2 whole entry, the tested form may be a part): as the sequence (Q6P6C2 whole entry, the tested form may be a part) above

[6] = biological target: T1, RNA demethylase ALKBH5; assay: Inhibition of ALKBH5 (66 to 292 residues) (unknown origin) extracted from Escherichia coli BL21 (DE3) cells using m6A ssDNA as substrate measured after 240 mins by fluorescence polarization assay
Target sequence in this assay (Q6P6C2 whole entry, the tested form may be a part): as above

[7] = biological target: T1, RNA demethylase ALKBH5; assay: Inhibition of ALKBH5 (66 to 292 residues) (unknown origin) extracted from Escherichia coli BL21 (DE3) cells using m6A ssDNA as substrate measured after 300 mins by fluorescence polarization assay
Target sequence in this assay (Q6P6C2 whole entry, the tested form may be a part): as above

[8] = biological target: T1, RNA demethylase ALKBH5; assay: Binding affinity to ALKBH5 (66 to 292 residues) (unknown origin) extracted from Escherichia coli BL21 (DE3) cells assessed as dissociation constant incubated for 1 hrs by MST analysis
Target sequence in this assay (Q6P6C2 whole entry, the tested form may be a part): as above

[9] = biological target: T1, RNA demethylase ALKBH5; assay: Binding affinity to ALKBH5 (66 to 292 residues) (unknown origin) extracted from Escherichia coli BL21 (DE3) cells assessed as dissociation constant incubated for 4 hrs by MST analysis
Target sequence in this assay (Q6P6C2 whole entry, the tested form may be a part): as above

[10] = biological target: T1, RNA demethylase ALKBH5; assay: Binding affinity to ALKBH5 (66 to 292 residues) (unknown origin) extracted from Escherichia coli BL21 (DE3) cells assessed as dissociation constant incubated for 5 hrs by MST analysis
[11] = biological target: T2, Alpha-ketoglutarate-dependent dioxygenase alkB homolog 3 (Homo sapiens, UniProt Q96Q83); assay: Inhibition of ALKBH3 (unknown origin) by restriction enzyme digestion method
T2 sequence (Q96Q83 whole entry): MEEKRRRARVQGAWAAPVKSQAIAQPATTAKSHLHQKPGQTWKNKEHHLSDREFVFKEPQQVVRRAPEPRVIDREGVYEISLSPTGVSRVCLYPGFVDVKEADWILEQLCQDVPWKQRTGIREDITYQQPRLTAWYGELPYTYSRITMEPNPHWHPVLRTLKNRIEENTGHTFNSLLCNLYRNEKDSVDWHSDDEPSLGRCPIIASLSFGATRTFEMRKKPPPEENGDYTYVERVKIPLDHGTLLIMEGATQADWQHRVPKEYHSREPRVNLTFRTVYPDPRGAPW

[12] = biological target: Alpha-ketoglutarate-dependent dioxygenase FTO (Homo sapiens, UniProt Q9C0B1); assay: Inhibition of FTO (32 to 505 residues) (unknown origin) extracted from Escherichia coli BL21 (DE3) cells using m6A ssDNA as substrate incubated for 2 hrs by TBE-PAGE based restriction enzyme digestion assay
[13] = biological target: T1, RNA demethylase ALKBH5; assay: Inhibition of ALKBH5 (66 to 292 residues) (unknown origin) extracted from Escherichia coli BL21 (DE3) cells using m6A ssDNA as substrate at 1.25 to 10 uM incubated for 2 hrs in presence of 2-OG by TBE-PAGE based restriction enzyme digestion assay; details: dose 1.25-10 µM
Target sequence in this assay (Q6P6C2 2-394 limits assumed): as the sequence (Q6P6C2 2-394 limits assumed) above

[14] = biological target: T1, RNA demethylase ALKBH5; assay: Inhibition of ALKBH5 in human MV4-11 cells assessed as increase in m6A methylation levels by m6A RNA Methylation Quantification Kit based colorimetric analysis; type: cell-based; details: dose 10-80 µM
Target sequence in this assay (Q6P6C2 2-394 limits assumed): as above

[15] = tested on: MOLM-13; assay: Downregulation of AXL mRNA expression levels in human MOLM-13 cells at 10 to 80 uM incubated for 72 hrs by qRT-PCR analysis; type: functional, cell-based; details: dose 10-80 µM
[16] = tested on: MV4-11; assay: Downregulation of AXL mRNA expression levels in human MV4-11 cells at 10 to 80 uM incubated for 72 hrs by qRT-PCR analysis; type: functional, cell-based; details: dose 10-80 µM
[17] = tested on: MOLM-13; assay: Induction of cell cycle arrest in human MOLM-13 cells assessed as accumulation of cells at G2/M phase at 40 uM incubated for 72 hrs by flow cytometry analysis (reference value: 17.53 %); type: functional
[18] = tested on: MOLM-13; assay: Induction of cell cycle arrest in human MOLM-13 cells assessed as accumulation of cells at G0/G1 phase at 80 uM incubated for 72 hrs by flow cytometry analysis (reference value: 65.53 %); type: functional
[19] = tested on: MOLM-13; assay: Induction of cell cycle arrest in human MOLM-13 cells assessed as accumulation of cells at S phase at 80 uM incubated for 72 hrs by flow cytometry analysis (reference value: 17.47 %); type: functional
[20] = tested on: MOLM-13; assay: Induction of cell cycle arrest in human MOLM-13 cells assessed as accumulation of cells at G2/M phase at 80 uM incubated for 72 hrs by flow cytometry analysis (reference value: 17.53 %); type: functional
[21] = tested on: MOLM-13; assay: Induction of apoptosis in human MOLM-13 cells assessed as viable cells at 40 uM incubated for 72 hrs by Annexin V FITC/PI staining based flow cytometry analysis (reference value: 89.65%); type: functional; details: read-out: Activity
[22] = tested on: MOLM-13; assay: Induction of apoptosis in human MOLM-13 cells assessed as early apoptotic cells at 40 uM incubated for 72 hrs by Annexin V FITC/PI staining based flow cytometry analysis (reference value: 4.32%); type: functional
[23] = tested on: MOLM-13; assay: Induction of apoptosis in human MOLM-13 cells assessed as necrotic cells at 40 uM incubated for 72 hrs by Annexin V FITC/PI staining based flow cytometry analysis (reference value: 1.75 %); type: functional
[24] = tested on: MOLM-13; assay: Induction of apoptosis in human MOLM-13 cells assessed as viable cells at 80 uM incubated for 72 hrs by Annexin V FITC/PI staining based flow cytometry analysis (reference value: 89.65%); type: functional; details: read-out: Activity
[25] = tested on: MOLM-13; assay: Induction of apoptosis in human MOLM-13 cells assessed as late apoptotic cells at 80 uM incubated for 72 hrs by Annexin V FITC/PI staining based flow cytometry analysis (reference value: 4.28 %); type: functional
[26] = tested on: MOLM-13; assay: Induction of apoptosis in human MOLM-13 cells assessed as necrotic cells at 80 uM incubated for 72 hrs by Annexin V FITC/PI staining based flow cytometry analysis (reference value: 1.75 %); type: functional
[27] = biological target: T1, RNA demethylase ALKBH5; assay: Inhibition of ALKBH5 (66 to 292 residues) (unknown origin) extracted from Escherichia coli BL21 (DE3) cells using m6A ssDNA as substrate at 5 uM incubated for 2 hrs by TBE-PAGE based restriction enzyme digestion assay
Target sequence in this assay (Q6P6C2 2-394 limits assumed): as above

Alpha-ketoglutarate-dependent dioxygenase FTO, sequence (Q9C0B1 whole entry, the tested form may be a part): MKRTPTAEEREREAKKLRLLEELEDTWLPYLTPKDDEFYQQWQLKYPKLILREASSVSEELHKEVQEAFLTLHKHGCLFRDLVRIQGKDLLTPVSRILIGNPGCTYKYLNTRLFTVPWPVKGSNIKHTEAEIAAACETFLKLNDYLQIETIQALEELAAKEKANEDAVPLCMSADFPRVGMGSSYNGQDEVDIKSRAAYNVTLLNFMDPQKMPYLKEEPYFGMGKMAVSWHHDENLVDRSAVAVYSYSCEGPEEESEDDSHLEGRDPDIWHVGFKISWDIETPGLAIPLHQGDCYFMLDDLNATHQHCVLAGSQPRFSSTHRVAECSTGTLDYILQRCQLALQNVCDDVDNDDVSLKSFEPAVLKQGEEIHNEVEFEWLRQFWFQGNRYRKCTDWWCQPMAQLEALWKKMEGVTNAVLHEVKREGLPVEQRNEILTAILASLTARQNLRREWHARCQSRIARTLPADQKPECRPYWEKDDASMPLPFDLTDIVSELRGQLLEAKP
RNA demethylase ALKBH5 (Homo sapiens), Q6P6C2 [K132E], sequence (Q6P6C2 whole entry K132E, the tested form may be a part): as the sequence (Q6P6C2 whole entry, the tested form may be a part) above, with K132E counted along it

## O=Cc1cc(S(=O)(=O)NC(=O)c2cc(C(=O)O)ccn2)c2ccccc2c1O
[1]
  Kd: 2800 nM
[2]
  Activity: Active
[3]
  Activity: Active
[4]
  inhibition: inactive
[5]
  IC50: 780 nM
[6]
  IC50: 260 nM
[7]
  IC50: 200 nM
[8]
  Kd: 2630 nM
[9]
  Kd: 650 nM
[10]
  Kd: 560 nM
[11]
  IC50: 75400 nM
[12]
  IC50: 19700 nM
[13]
  inhibition: Active
[14]
  inhibition: Dose-dependent-effect
[15]
  Activity: Active
[16]
  Activity: Active
[17]
  Activity: 26.1%
[18]
  Activity: 73.67%
[19]
  Activity: 4.11%
[20]
  Activity: 22.22%
[21]
  viability at 40 µM: 83%
[22]
  Activity: 10.4%
[23]
  Activity: 2.03%
[24]
  viability at 80 µM: 77.6%
[25]
  Activity: 12%
[26]
  Activity: 1.2%
[27]
  inhibition: Active
